In test [1] the test system is M2. As to the kind of experiment: functional experiments on guinea pig atrium (GPA). It is filed as cell-based.
Description: a pA2 and pEC50 values from functional experiments on rabbit vas deferens, guinea pig atrium and guinea pig ileum.
The target in test [2] is T1, M2 receptors (Rattus norvegicus, UniProt P10980).
T1 construct: M2 receptors from preparations of rat hearts; from tissue; host or cells: rat heart preparations
T1 sequence (P10980 1-466): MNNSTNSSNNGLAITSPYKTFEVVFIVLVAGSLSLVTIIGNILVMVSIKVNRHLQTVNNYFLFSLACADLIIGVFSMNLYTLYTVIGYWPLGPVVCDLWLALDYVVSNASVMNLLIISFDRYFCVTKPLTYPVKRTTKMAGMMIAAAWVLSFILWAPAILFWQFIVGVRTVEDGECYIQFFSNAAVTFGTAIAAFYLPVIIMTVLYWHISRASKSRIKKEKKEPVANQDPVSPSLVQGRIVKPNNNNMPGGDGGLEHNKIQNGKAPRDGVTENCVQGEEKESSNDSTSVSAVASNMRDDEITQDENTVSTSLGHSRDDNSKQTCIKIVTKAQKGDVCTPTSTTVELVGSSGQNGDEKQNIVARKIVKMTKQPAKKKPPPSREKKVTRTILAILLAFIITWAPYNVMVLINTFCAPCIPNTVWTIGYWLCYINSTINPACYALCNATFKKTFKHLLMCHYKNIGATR
The experiment in a line: [3H]-NMS binding studies on M2 receptors from preparations of rat hearts. From the text: c pKi values from [^3H]-NMS binding studies on M2 receptors from preparations of rat hearts

Molecules are shown by their SMILES.

As to `C[N+]1(C)CC[C@H](OC(=O)[C@@](O)(c2ccccc2)C2CCCC2)C1` [Ia, (3S,2′S)-3-[(cyclopentylhydroxyphenylacetyl)oxy]-1,1-dimethylpyrrolidinium iodide], in test [1], the “PA2 GPA (M2)” value amounted to 7.92. Moreover, the inhibition constant (Ki) – broadly, a dissociation constant, usually derived from enzyme kinetics or from competition with a known ligand – in test [2] was 13.2 nM.

In the case of `C[N+]1(C)CC[C@H](OC(=O)[C@](O)(c2ccccc2)C2CCCC2)C1` [Ib, (3S,2′R)-3-[(cyclopentylhydroxyphenylacetyl)oxy]-1,1-dimethylpyrrolidinium iodide], in test [2], the Ki is 0.182 nM.

Consider `C[N+]1(C)CC[C@@H](OC(=O)[C@](O)(c2ccccc2)C2CCCC2)C1` [Ic, (3R,2′R)-3-[(cyclopentylhydroxyphenylacetyl)oxy]-1,1-dimethylpyrrolidinium iodide], for which the “PA2 GPA (M2)” value in test [1] stood at 9.43.

For the compound `C[N+]1(C)CC[C@@H](OC(=O)[C@@](O)(c2ccccc2)C2CCCC2)C1` [Id, (3R,2′S)-3-[(cyclopentylhydroxyphenylacetyl)oxy]-1,1-dimethylpyrrolidinium iodide], the “PA2 GPA (M2)” value in test [1] is listed as 8.69. For the same compound, the inhibitory constant (Ki) in test [2] is 1 nM.
